Measurements: patent publication US9890138B2, “Diaminopyrimidine derivatives and processes for the preparation thereof” (YUHAN CORPORATION, priority 2011, dated 2018)
Structures can show the parent of a compound that is named as a salt.

Biological target: T1, human 5-HT4(a) (Homo sapiens, UniProt Q13639)
T1 construct: host or cells: GeneBlAzer HTR4-CRE-bla CHO-K1 cells
Test: Evaluation of agonistic activity in CHO-K1 cells expressing human 5-HT4(a) (GeneBlAzer HTR4-CRE-bla CHO-K1, beta-lactamase reporter)
Format: cell-based
Settings: CHO-K1 cells stably expressing human 5-HT4(a)
Description: Test Example 1: Evaluation of Agonistic Activity in CHO-K1 Cells Expressing Human 5-HT4(a)
As CHO-K1 cells stably expressing human 5-HT4(a), we used the GeneBlAzer HTR4-CRE-bla CHO-K1 cells (Invitrogen Corp.). The cells were cultured, under the condition of 37[…] and 5% CO2, in a DMEM supplemented with 10% fetal bovine serum (FBS), 25 mM HEPES (pH7.4), 600 μg/ml hygromycin B, 0.1 mM non-essential amino acids, 100 unit/ml penicillin and 100 μg/ml streptomycin. Subcultures were performed three times per one week, each being at less than 80% confluence. At the previous day before treating test compounds, the cells were collected using 0.5% trypsin/EDTA and then diluted with a DMEM supplemented with 1% FBS, 25 mM HEPES, and 0.1 mM non-essential amino acids into 3.125×10^5 cells/ml. 32 μl of the diluted cells were added into 384-well plate (10^4 cells per well) and then incubated overnight. After the overnight culture, 8 μl of the medium having 1% of DMSO was added into the cell-free control well and the non-stimulating control well, respectively. 8 μl of the respective test compound dilutions (which had been prepared by diluting by 100-times with the medium as mentioned in the above) having 1% of DMSO were added to the respective remaining wells. After being cultured in the incubator for 5 hours, the wells of the 384-plate were treated with the substrate solution (8 μl per well) prepared according to the vendor's instruction (i.e., Invitrogen's instruction), and then incubated in the dark room for additional two hours. Agonistic activities on 5-HT4 receptor were evaluated, on the basis of fluorescence values of the cleavage-products by beta-lactamase. After exciting to 410 nm of wavelength using a fluorescence detector (Genios Pro), we measured the fluorescence values at two emission wavelengths (first wavelength: 465 nm, second wavelength: 535 nm). Data were analyzed on the basis of the ratio of fluorescence intensities of each well at the respective wavelengths. Each EC50 value was calculated by non-linear regression analysis using the “GraphPad Prism” program, based on the activities according to 8-different concentrations of the test compounds.

T1 sequence (Q13639 1-387 isoform Q13639-2): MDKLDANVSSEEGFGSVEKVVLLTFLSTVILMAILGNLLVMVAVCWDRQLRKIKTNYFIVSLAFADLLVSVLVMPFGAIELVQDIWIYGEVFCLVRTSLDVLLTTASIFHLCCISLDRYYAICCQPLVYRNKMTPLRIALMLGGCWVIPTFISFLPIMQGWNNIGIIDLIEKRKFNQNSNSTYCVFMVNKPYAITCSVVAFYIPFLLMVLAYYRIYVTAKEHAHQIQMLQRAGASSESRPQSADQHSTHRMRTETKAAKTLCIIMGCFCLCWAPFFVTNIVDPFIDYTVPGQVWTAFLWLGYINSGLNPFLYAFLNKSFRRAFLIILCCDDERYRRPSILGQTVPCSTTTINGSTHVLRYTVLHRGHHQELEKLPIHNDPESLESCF

SMILES | EC50 [nM]
CCCCc1cc(N2CC[C@H](NC(C)=O)C2)nc(Nc2ccc(F)c([N+](=O)[O-])c2)n1 [Example 437] | 0.02
CCCc1cc(N2CCC[C@H]2COC)nc(Nc2ccc(N)c(C#N)c2)n1 [Example 45, (S)-2-amino-5-{4-[2-(methoxymethyl)pyrrolidin-1-yl]-6-propylpyrimidin-2-ylamino}benzonitrile] | 0.036
CCCc1cc(N2CC[C@H](NCC3CC3)C2)nc(Nc2ccc(F)c(C#N)c2)n1 [Example 376, (S)-5-{4-[3-(cyclopropylmethylamino)pyrrolidin-1-yl]-6-propylpyrimidin-2-ylamino}-2-fluorobenzonitrile] | 0.0037
CCCc1cc(N2CC[C@H](NC(C)=O)C2)nc(Nc2ccc(C)c(O)c2)n1 [Example 274] | 0.087
CCCc1cc(N2CC[C@H](NC3CCCC3)C2)nc(Nc2ccc(C)c(C#N)c2)n1 [Example 420] | 0.0029
CCCc1cc(N2CC[C@H](NC(=O)CO)C2)nc(Nc2ccc(N)c(C(F)(F)F)c2)n1 [Example 476] | 0.014
CCCc1cc(N2CC[C@H](N)C2)nc(Nc2ccc(C)c(Cl)c2)n1 [Example 349, (S)-4-(3-aminopyrrolidin-1-yl)-N-(3-chloro-4-methylphenyl)-6-propylpyrimidin-2-amine dihydrochloride] | 0.016
CCCCc1cc(N2CC[C@H](NC(=O)OC(C)(C)C)C2)nc(Nc2ccc(C)c(C#N)c2)n1 [Example 232, (S)-tert-butyl 1-[6-butyl-2-(3-cyano-4-methylphenylamino)pyrimidin-4-yl]pyrrolidin-3-ylcarbamate] | 0.13
CCCc1cc(N2CCC[C@H]2COC)nc(Nc2ccc(F)c(C(F)(F)F)c2)n1 [Example 41, (S)-N-[4-fluoro-3-(trifluoromethyl)phenyl]-4-[2-(methoxymethyl)pyrrolidin-1-yl]-6-propylpyrimidin-2-amine] | 0.15
CCCc1cc(N2CCC(NC(C)=O)C2)nc(Nc2cccc(C(F)(F)F)c2)n1 (centres unmarked) [Example 301] | 0.11
CCCc1cc(N2CC[C@H](N)C2)nc(Nc2cccc(C(F)(F)F)c2)n1 [Example 347, (S)-4-(3-aminopyrrolidin-1-yl)-6-propyl-N-[3-(trifluoromethyl)phenyl]pyrimidin-2-amine dihydrochloride] | 0.03
CCCc1cc(N2CCC[C@H]2C)nc(Nc2cccc(C(F)(F)F)c2)n1 [Example 316] | 0.21
CCCc1cc(N2CC[C@H](CNC(=O)OC(C)(C)C)C2)nc(Nc2cccc(C#N)c2)n1 [Example 56, (R)-tert-butyl{1-[2-(3-cyanophenylamino)-6-propylpyrimidin-4-yl]pyrrolidin-3-yl}methylcarbamate] | 0.312
CCCc1cc(N2CC[C@H](NC(C)=O)C2)nc(Nc2ccc(F)c(N)c2)n1 [Example 291] | 0.0074
CCCc1cc(N2CC[C@H](NC(=O)CO)C2)nc(Nc2cc(N)cc(C#N)c2)n1 [Example 474, (S)—N-{1-[2-(3-amino-5-cyanophenylamino)-6-propylpyrimidin-4-yl]pyrrolidin-3-yl}-2-hydroxyacetamide] | 0.0066
CCCc1cc(N2CC[C@H](NC)C2)nc(Nc2ccc(F)c(N)c2)n1 [Example 484] | 0.0058
CCCc1cc(N2CCC(NCC)C2)nc(Nc2ccc(C)c(C#N)c2)n1 (centres unmarked) [Example 173] | 0.004
CCCc1cc(N2CCC[C@H]2CO)nc(Nc2cccc(C(F)(F)F)c2)n1 [Example 203] | 0.3
CCCc1cc(N2CC[C@H](NC(C)C)C2)nc(Nc2cccc(C#N)c2)n1 [Example 138, (S)-3-{4-[3-(isopropylamino)pyrrolidin-1-yl]-6-propylpyrimidin-2-ylamino}benzonitrile] | 0.012
CCCc1cc(N2CC[C@H](NC(=O)Cc3ccc(N)cc3)C2)nc(Nc2cccc(C#N)c2)n1 [Example 73, (S)-2-(4-aminophenyl)-N-{1-[2-(3-cyanophenylamino)-6-propylpyrimidin-4-yl]pyrrolidin-3-yl}acetamide] | 0.27
CCCc1cc(N2CCC[C@H]2CNC)nc(Nc2cccc(C#N)c2)n1 [Example 403] | 0.414
CCCc1cc(N2CCC(NC(C)=O)C2)nc(Nc2ccc3[nH]c(C(F)(F)F)nc3c2)n1 (centres unmarked) [Example 307] | 0.24

SMILES | EC50 [nM]
CCCc1cc(N2CC[C@H](NC(=O)C/C=C/c3ccccc3)C2)nc(Nc2cccc(C#N)c2)n1 [Example 79, (S,E)-N-{1-[2-(3-cyanophenylamino)-6-propylpyrimidin-4-yl]pyrrolidin-3-yl}-4-phenylbut-3-enamide] | 0.44
CCCc1cc(N2CC[C@H](NCc3cccnc3)C2)nc(Nc2cccc(C#N)c2)n1 [Example 102, (S)-3-{4-propyl-6-[3-(pyridin-3-ylmethylamino)pyrrolidin-1-yl]pyrimidin-2-ylamino}benzonitrile] | 0.39
CCCCc1cc(N2CC[C@H](NC(C)=O)C2)nc(Nc2ccc(C)c(C#N)c2)n1 [Example 228, (S)—N-{1-[6-butyl-2-(3-cyano-4-methylphenylamino)pyrimidin-4-yl]pyrrolidin-3-yl}acetamide] | 0.014
CCCCc1cc(N2CC[C@H](NC(C)=O)C2)nc(Nc2cc(N)cc(C(F)(F)F)c2)n1 [Example 440] | 0.017
CCCc1cc(N2CC[C@H](NCc3cc(C)c(C)o3)C2)nc(Nc2ccc(C)c(C#N)c2)n1 [Example 424] | 0.02
CCCc1cc(N2CCC(NCC3CC3)C2)nc(Nc2cccc(C#N)c2)n1 (centres unmarked) [Example 387, 3-{4-[3-(cyclopropylmethylamino)pyrrolidin-1-yl]-6-propylpyrimidin-2-ylamino}benzonitrile dihydrochloride] | 0.007
CCCc1cc(N2CC[C@H](NC(C)=O)C2)nc(Nc2ccc(C)c(Cl)c2)n1 [Example 246] | 0.04
CCCCc1cc(N2CC[C@H](NC)C2)nc(Nc2ccc(C)c([N+](=O)[O-])c2)n1 [Example 448] | 0.0025
CCCCc1cc(N2CC[C@H](NC)C2)nc(Nc2ccc(C)c(C#N)c2)n1 [Example 231] | 0.0067
CCCc1cc(N2CC[C@H](NCc3cccs3)C2)nc(Nc2cccc(C#N)c2)n1 [Example 112, (S)-3-{4-propyl-6-[3-(thiophen-2-ylmethylamino)pyrrolidin-1-yl]pyrimidin-2-ylamino}benzonitrile] | 0.045
CCCc1cc(N2CCC[C@H]2C)nc(Nc2ccc(F)c([N+](=O)[O-])c2)n1 [Example 320, (R)—N-(4-fluoro-3-nitrophenyl)-4-(2-methylpyrrolidin-1-yl)-6-propylpyrimidin-2-amine] | 0.041
CCCc1cc(N2CCC[C@H]2COC)nc(Nc2ccc(F)c(C#N)c2)n1 [Example 43, (S)-2-fluoro-5-{4-[2-(methoxymethyl)pyrrolidin-1-yl]-6-propylpyrimidin-2-ylamino}benzonitrile] | 0.178
CCCc1cc(N2CC[C@H](NCC)C2)nc(Nc2ccc(F)c(C(F)(F)F)c2)n1 [Example 491, (S)-4-[3-(ethylamino)pyrrolidin-1-yl]-N-[4-fluoro-3-(trifluoromethyl)phenyl]-6-propylpyrimidin-2-amine hydrochloride] | 0.0029
CCCc1cc(N2CCC[C@H]2COC)nc(Nc2cccc(C#N)c2)n1 [Example 34, (S)-3-{4-[2-(methoxymethyl)pyrrolidin-1-yl]-6-propylpyrimidin-2-ylamino}benzonitrile] | 0.16
CCCc1cc(N2CC[C@H](NC(=O)Cc3ccncc3)C2)nc(Nc2cccc(C#N)c2)n1 [Example 78, (S)-N-{1-[2-(3-cyanophenylamino)-6-propylpyrimidin-4-yl]pyrrolidin-3-yl}-2-(pyridin-4-yl)acetamide] | 0.28
CCCc1cc(N2CC[C@H](NC3CCNCC3)C2)nc(Nc2cccc(C#N)c2)n1 [Example 221, (S)-3-{4-[3-(piperidin-4-ylamino)pyrrolidin-1-yl]-6-propylpyrimidin-2-ylamino}benzonitrile] | 0.149
CCCc1cc(N2CCC(NC(C)=O)C2)nc(Nc2ccc3cc[nH]c3c2)n1 (centres unmarked) [Example 192] | 0.02
CCCc1cc(N2CCC[C@H]2C)nc(Nc2ccc(C)c(Cl)c2)n1 [Example 318] | 0.16
CCCc1cc(N2CC[C@H](NC(=O)Cc3ccccc3)C2)nc(Nc2cccc(C#N)c2)n1 [Example 66, (S)-N-{1-[2-(3-cyanophenylamino)-6-propylpyrimidin-4-yl]pyrrolidin-3-yl}-2-phenylacetamide] | 0.1
CCCc1cc(N2CC[C@H](NCc3ccc(C(F)(F)F)cc3)C2)nc(Nc2cccc(C#N)c2)n1 [Example 108, (S)-3-(4-propyl-6-{3-[4-(trifluoromethyl)benzylamino]pyrrolidin-1-yl}pyrimidin-2-ylamino)benzonitrile] | 0.21
CCCc1cc(N2CCC(N)C2)nc(Nc2ccc(F)c(C#N)c2)n1 (centres unmarked) [Example 182] | 0.036
CCCc1cc(N2CC[C@H](NC(C)=O)C2)nc(Nc2cccc([N+](=O)[O-])c2)n1 [Example 247] | 0.012
